From patent publication US20260184662A1, “COMPOSITE OF ACID AND SALT, AND PREPARATION METHOD THEREFOR” (NANJING NUTRABUILDING BIO-TECH CO., LTD., priority 2022, published 2026)
Read-outs that look alike come from different tables or passages of the source.

Key:
[1] = Determination of moisture contents with KF moisture meter at different time points; type: physicochemical; details: temperature 23° C., humidity 92.5%
Source text: (§1) For R-3-hydroxybutyric acid, potassium R-3-hydroxybutyrate, mixture of R-3-hydroxybutyric acid and potassium R-3-hydroxybutyrate, and R-3-hydroxybutyric acid·potassium R-3-hydroxybutyrate complex of Example 1, under a certain condition, KF moisture meter was used to determine the moisture contents at different time points.
as §1, with “3-hydroxybutyric” for “R-3-hydroxybutyric”, “3-hydroxybutyrate,” for “R-3-hydroxybutyrate,”, “3-hydroxybutyrate” for “R-3-hydroxybutyrate”, “7,” for “1,”
as §1, with “S-3-hydroxybutyric” for “R-3-hydroxybutyric”, “S-3-hydroxybutyrate,” for “R-3-hydroxybutyrate,”, “S-3-hydroxybutyrate” for “R-3-hydroxybutyrate”, “13,” for “1,”
as §1, with “calcium” for “potassium”, “acid·calcium” for “acid·potassium”, “19,” for “1,”
(§2) For 3-hydroxybutyric acid, calcium 3-hydroxybutyrate, mixture of 3-hydroxybutyric acid and calcium 3-hydroxybutyrate, and 3-hydroxybutyric acid·calcium 3-hydroxybutyrate complex of Example 25, under a certain condition, KF moisture meter was used to determine the moisture contents at different time points.
as §2, with “S-3-hydroxybutyric” for “3-hydroxybutyric”, “S-3-hydroxybutyrate,” for “3-hydroxybutyrate,”, “S-3-hydroxybutyrate” for “3-hydroxybutyrate”, “31,” for “25,”
as §1, with “magnesium” for “potassium”, “acid·magnesium” for “acid·potassium”, “37,” for “1,”
as §2, with “magnesium” for “calcium”, “acid·magnesium 3-hydroxy butyrate” for “acid·calcium 3-hydroxybutyrate”, “43,” for “25,”
For S-3-hydroxybutyric acid, magnesium S-3-hydroxybutyrate, mixture of S-3-hydroxybutyric acid and magnesium S-3-hydroxybutyrate, and S-3-hydroxybutyric acid·magnesium S-3-hydroxybutyrate complex of Example 49, under a certain condition, KF moisture meter was used to determine the moisture contents at different time points.
(§3) For R-3-hydroxypentanoic acid, sodium R-3-hydroxypentanoate, mixture of R-3-hydroxypentanoic acid and sodium R-3-hydroxypentanoate, and R-3-hydroxypentanoic acid·sodium R-3-hydroxypentanoate complex of Example 55, under a certain condition, KF moisture meter was used to determine the moisture contents at different time points.
as §3, with “3-hydroxypentanoic” for “R-3-hydroxypentanoic”, “3-hydroxypentanoate,” for “R-3-hydroxypentanoate,”, “3-hydroxypentanoate” for “R-3-hydroxypentanoate”, “61,” for “55,”
as §3, with “S-3-hydroxypentanoic” for “R-3-hydroxypentanoic”, “S-3-hydroxypentanoate,” for “R-3-hydroxypentanoate,”, “S-3-hydroxypentanoate” for “R-3-hydroxypentanoate”, “67,” for “55,”

[2] = Stability of complexes at 30-80° C.; type: physicochemical
Source text: For R-3-hydroxybutyric acid, potassium R-3-hydroxybutyrate, mixture of R-3-hydroxybutyric acid and potassium R-3-hydroxybutyrate, and R-3-hydroxybutyric acid·potassium R-3-hydroxybutyrate complex of Example 1, […]
For 3-hydroxybutyric acid, potassium 3-hydroxybutyrate, mixture of 3-hydroxybutyric acid and potassium 3-hydroxybutyrate, and 3-hydroxybutyric acid·potassium 3-hydroxybutyrate complex of Example 7, […]
For S-3-hydroxybutyric acid, potassium S-3-hydroxybutyrate, mixture of S-3-hydroxybutyric acid and potassium S-3-hydroxybutyrate, and S-3-hydroxybutyric acid·potassium S-3-hydroxybutyrate complex of Example 13, […]
For R-3-hydroxybutyric acid, calcium R-3-hydroxybutyrate, mixture of R-3-hydroxybutyric acid and calcium R-3-hydroxybutyrate, and R-3-hydroxybutyric acid·calcium R-3-hydroxybutyrate complex of Example 19, […]
For 3-hydroxybutyric acid, calcium 3-hydroxybutyrate, mixture of 3-hydroxybutyric acid and calcium 3-hydroxybutyrate, and 3-hydroxybutyric acid·calcium 3-hydroxybutyrate complex of Example 25, […]
For S-3-hydroxybutyric acid, calcium S-3-hydroxybutyrate, mixture of S-3-hydroxybutyric acid and calcium S-3-hydroxybutyrate, and S-3-hydroxybutyric acid·calcium S-3-hydroxybutyrate complex of Example 31, […]
For R-3-hydroxybutyric acid, magnesium R-3-hydroxybutyrate, mixture of R-3-hydroxybutyric acid and magnesium R-3-hydroxybutyrate, and R-3-hydroxybutyric acid·magnesium R-3-hydroxybutyrate complex of Example 37, […]
For 3-hydroxybutyric acid, magnesium 3-hydroxybutyrate, mixture of 3-hydroxybutyric acid and magnesium 3-hydroxybutyrate, and 3-hydroxybutyric acid·magnesium 3-hydroxybutyrate complex of Example 43, […]
For S-3-hydroxybutyric acid, magnesium S-3-hydroxybutyrate, mixture of S-3-hydroxybutyric acid and magnesium S-3-hydroxybutyrate, and S-3-hydroxybutyric acid·magnesium S-3-hydroxybutyrate complex of Example 49, […]
For R-3-hydroxypentanoic acid, sodium R-3-hydroxypentanoate, mixture of R-3-hydroxypentanoic acid and sodium R-3-hydroxypentanoate, and R-3-hydroxypentanoic acid·sodium R-3-hydroxypentanoate complex of Example 55, […]
For 3-hydroxypentanoic acid, sodium 3-hydroxypentanoate, mixture of 3-hydroxypentanoic acid and sodium 3-hydroxypentanoate, and 3-hydroxypentanoic acid·sodium 3-hydroxypentanoate complex of Example 61, […]
For S-3-hydroxypentanoic acid, sodium S-3-hydroxypentanoate, mixture of S-3-hydroxypentanoic acid and sodium S-3-hydroxypentanoate, and S-3-hydroxypentanoic acid·sodium S-3-hydroxypentanoate complex of Example 67, […]

Row | Stability [2] | SMILES | moisture content (%) ([1]; 30 min) | moisture content (%) ([1]; 1 h) | moisture content (%) ([1]; 2 h) | moisture content (%) ([1]; 4 h) | moisture content (%) ([1]; 6 h) | moisture content (%) ([1]; 7 h) | moisture content (%) ([1]; 11 h) | moisture content (%) ([1]; 22 h) | Stability ([2]; 30° C.) | Stability ([2]; 40° C.) | Stability ([2]; 50° C.) | Stability ([2]; 60° C.) | Stability ([2]; 80° C.)
1 |  | CC(O)CC(=O)O (centres unmarked) [3-hydroxybutyric acid] | 1.32% | 2.37% | 4.15% | 6.59% | 9.68% | 10.71% | 17.33% | 33.51% |  |  |  |  | 
2 |  | CC(O)CC(=O)O.CC(O)CC(=O)[O-].CC(O)CC(=O)[O-].[Ca+2] (centres unmarked) [3-hydroxybutyric acid·calcium 3-hydroxybutyrate] | 0.56% | 1.12% | 1.86% | 3.19% | 4.68% | 5.45% | 8.72% | 14.43% | unchanged | unchanged | unchanged | unchanged | melted
3 |  | CC(O)CC(=O)O.CC(O)CC(=O)[O-].CC(O)CC(=O)[O-].[Mg+2] (centres unmarked) [3-hydroxybutyric acid·magnesium 3-hydroxybutyrate] | 0.56% | 0.97% | 1.82% | 3.26% | 4.62% | 5.57% | 8.75% | 14.68% | unchanged | unchanged | unchanged | Unchanged | melted
4 |  | CC(O)CC(=O)O.CC(O)CC(=O)[O-].[K+] (centres unmarked) [3-hydroxybutyric acid·potassium 3-hydroxybutyrate] | 0.68% | 1.28% | 1.93% | 3.68% | 5.92% | 6.84% | 9.67% | 19.25% | unchanged | unchanged | Unchanged | unchanged | melted
5 |  | CCC(O)CC(=O)O (centres unmarked) [3-hydroxypentanoic acid] | 1.10% | 1.98% | 3.46% | 5.49% | 8.07% | 8.93% | 14.44% | 27.93% |  |  |  |  | 
6 | unchanged | CCC(O)CC(=O)O.CCC(O)CC(=O)[O-].[Na+] (centres unmarked) [3-hydroxypentanoic acid·sodium 3-hydroxypentanoate] | 0.51% | 0.98% | 1.71% | 2.82% | 4.16% | 4.60% | 7.28% | 14.69% |  |  |  |  | 
7 |  | C[C@H](O)CC(=O)[O-].C[C@H](O)CC(=O)[O-].[Ca+2] [Calcium S-3-hydroxybutyrate, calcium S-3-hydroxybutyrate] | 0.88% | 1.92% | 2.25% | 4.18% | 5.24% | 6.25% | 10.34% | 17.55% |  |  |  |  | 
8 |  | C[C@H](O)CC(=O)[O-].C[C@H](O)CC(=O)[O-].[Mg+2] [Magnesium S-3-hydroxybutyrate, magnesium S-3-hydroxybutyrate] | 0.88% | 1.28% | 2.43% | 4.22% | 6.37% | 8.24% | 12.35% | 18.54% |  |  |  |  | 
9 |  | CC(O)CC(=O)[O-].[K+] (centres unmarked) [Potassium 3-hydroxybutyrate, potassium 3-hydroxybutyrate] | 1.14% | 1.93% | 3.22% | 4.98% | 7.77% | 8.34% | 16.82% | 32.86% |  |  |  |  | 
10 |  | C[C@@H](O)CC(=O)[O-].[K+] [Potassium R-3-hydroxybutyrate, potassium R-3-hydroxybutyrate] | 1.04% | 1.91% | 3.19% | 4.93% | 7.65% | 8.24% | 16.72% | 32.68% |  |  |  |  | 
11 |  | C[C@H](O)CC(=O)[O-].[K+] [Potassium S-3-hydroxybutyrate, potassium S-3-hydroxybutyrate] | 1.06% | 1.92% | 3.22% | 4.97% | 7.55% | 8.34% | 16.82% | 32.75% |  |  |  |  | 
12 |  | C[C@@H](O)CC(=O)O [R-3-hydroxybutyric acid] | 1.13% | 2.25% | 3.96% | 6.46% | 9.52% | 10.56% | 17.22% | 33.34% |  |  |  |  | 
13 |  | CC[C@@H](O)CC(=O)O [R-3-hydroxypentanoic acid] | 0.94% | 1.88% | 3.30% | 5.38% | 7.93% | 8.80% | 14.35% | 27.78% |  |  |  |  | 
14 |  | CC[C@H](O)CC(=O)O [S-3-hydroxypentanoic acid] | 1.03% | 1.90% | 3.38% | 5.27% | 7.94% | 8.85% | 14.23% | 27.46% |  |  |  |  | 
